From article PMC8296708, “The pan HDAC inhibitor Givinostat improves muscle function and histological parameters in two Duchenne muscular dystrophy murine models expressing different haplotypes of the LTBP4 gene” (Skeletal Muscle, 2021)
Like-named read-outs stand apart in the source and are kept apart here.

Test: Pharmacokinetic study: plasma, blood and quadriceps Givinostat levels after single oral dose (LC-MS/MS)
Type: in vivo, mdx mice (C57BL/10ScSn-Dmd^mdx/J)
Conditions: mdx mice; for Kp: quadriceps muscle and plasma
Description: For the PK study, C57BL/10ScSn-Dmd^mdx/J (Stock No: 001801) 9-week-old male mice were purchased from The Jackson Laboratories (Bar Harbor, Maine, USA). After 5 days of acclimatization in the animal facility, mdx mice were randomized into 4 treatment groups (28 mice/group; 4 mice/cage) and 1 untreated group (4 mice) based on their BW. Animals were administered with single oral dose of Givinostat at 5, 10, 25, and 37.5 mg/kg and samples were collected at the following time points: 0.5, 1, 1.5, 2, 3, 4, and 6 h after administration.
In the PK study, formulations were prepared suspending Givinostat in 0.5% methylcellulose at the concentrations of 0.5, 1, 2.5, and 3.75 mg/mL. The administered volume was 10 mL/kg to obtain 5, 10, 25, and 37.5 mg/kg dosages.
Mice were maintained under isoflurane anesthesia. Blood samples were collected in two aliquots from the retro-orbital plexus of mice and transferred into tubes containing heparin as anticoagulant (100 USPunits/mL) and then mice were sacrificed by cervical dislocation. One aliquot of 50 μL was diluted with the same volume of water and immediately frozen in dry ice. This blood was analyzed in order to subtract the blood content of Givinostat from the muscle homogenate. The other aliquot of blood was centrifuged for 10 min at 13,000 rpm at 4 °C and plasma was separated and frozen in dry ice. The quadriceps of the right hindlimb was removed, weighed, and then washed twice in 1 mL of PBS pH 7.4 and dried with paper, then it was frozen in dry ice.
Givinostat was determined in mouse plasma (50 μL) following a protein precipitation (200 μL of 1% HCOOH in acetonitrile) and Ostro (Waters) plate filtration. The organic phase was evaporated under a stream of nitrogen; the residue was re-dissolved in the reconstitution solvent (100 μL of 25% CH3CN-75% H2O-0.05% TFA), and 5 μL was analyzed. Givinostat concentrations were measured by LC-MS/MS method, in the calibration range of 0.5–400 ng/mL.
Givinostat was determined in diluted blood (100 μL, 1:2 in water) with a liquid-liquid extraction. Samples were mixed and extracted with 2 mL of diethyl ether and centrifuged, and the organic phase was separated and evaporated under a stream of nitrogen. The residue was re-dissolved in the reconstitution solvent (150 μL of 25% CH3CN-75% H2O-0.05% TFA), sonicated, and filtered (regenerated cellulose syringe filters), and 5 μL was analyzed by LC-MS/MS method. The calibration range of the method was 1–200 ng/mL.
Mouse quadriceps were homogenized in PBS pH = 7.4 (1:10 w/v) with ultrasonic homogenizer (Sonoplus Mini20 - Bandelin) maintaining the samples in an ice bath. Quadricep homogenate (100 μL) was added with 200 μL of 0.5% TFA in CH3CN, vortexed, and centrifuged. Then, 100 μL of supernatant was diluted with H2O (1:2). Samples were filtered (regenerated cellulose syringe filters) and aliquots of 5 μL were analyzed. Givinostat concentrations were measured by LC-MS/MS method, in the calibration range of 1–40 ng/mL.
PK parameters were evaluated on mean curves using conventional non-compartmental methodology by the software KineticaTM v. 5.1. Quadriceps concentrations were expressed as nanograms per gram of muscle, this value was obtained by multiplying the homogenate concentrations obtained for the homogenate volume, then subtracting the residual blood content, as reported in literature, considering the measured blood concentrations and dividing for the muscle weight.

[1] = male, C57BL/10ScSn-Dmd^mdx/J (mdx), mouse, blood, 5 mg/kg single oral dose
[2] = male, C57BL/10ScSn-Dmd^mdx/J (mdx), mouse, blood, 10 mg/kg single oral dose
[3] = male, C57BL/10ScSn-Dmd^mdx/J (mdx), mouse, blood, 25 mg/kg single oral dose
[4] = male, C57BL/10ScSn-Dmd^mdx/J (mdx), mouse, blood, 37.5 mg/kg single oral dose
[5] = male, C57BL/10ScSn-Dmd^mdx/J (mdx), mouse, plasma, 5 mg/kg single oral dose
[6] = male, C57BL/10ScSn-Dmd^mdx/J (mdx), mouse, plasma, 10 mg/kg single oral dose
[7] = male, C57BL/10ScSn-Dmd^mdx/J (mdx), mouse, plasma, 25 mg/kg single oral dose
[8] = male, C57BL/10ScSn-Dmd^mdx/J (mdx), mouse, plasma, 37.5 mg/kg single oral dose

CCN(CC)Cc1ccc2cc(COC(=O)Nc3ccc(C(=O)NO)cc3)ccc2c1 [Givinostat]
Detectability in plasma, blood and muscle samples after oral treatment (all doses investigated (5-37.5 mg/kg p.o.)): detectable in all plasma, blood, and muscle samples up to 6 h
blood plasma ratio (male, C57BL/10ScSn-Dmd^mdx/J (mdx), mouse, blood and plasma, 5 mg/kg single oral dose, read-out: AUCtot Blood/Plasma ratio): 1.6
blood plasma ratio (male, C57BL/10ScSn-Dmd^mdx/J (mdx), mouse, blood and plasma, 25 mg/kg single oral dose, read-out: AUCtot Blood/Plasma ratio): 1.5
blood plasma ratio (male, C57BL/10ScSn-Dmd^mdx/J (mdx), mouse, blood and plasma, 37.5 mg/kg single oral dose, read-out: AUCtot Blood/Plasma ratio): 1.4
blood plasma ratio (male, C57BL/10ScSn-Dmd^mdx/J (mdx), mouse, blood and plasma, mean over 5, 10, 25, 37.5 mg/kg oral doses, read-out: AUCtot Blood/Plasma ratio, mean): 1.6
Cmax (male, C57BL/10ScSn-Dmd^mdx/J (mdx), mouse, blood, po, 5 mg/kg, blood, 5 mg/kg single oral dose, read-out: Cmax): 35.1 ng/mL
Cmax (male, C57BL/10ScSn-Dmd^mdx/J (mdx), mouse, blood, po, 10 mg/kg, blood, 10 mg/kg single oral dose, read-out: Cmax): 170 ng/mL
Cmax (male, C57BL/10ScSn-Dmd^mdx/J (mdx), mouse, blood, po, 25 mg/kg, blood, 25 mg/kg single oral dose, read-out: Cmax): 639 ng/mL
Cmax (male, C57BL/10ScSn-Dmd^mdx/J (mdx), mouse, blood, po, 37.5 mg/kg, blood, 37.5 mg/kg single oral dose, read-out: Cmax): 1120 ng/mL
Cmax (male, C57BL/10ScSn-Dmd^mdx/J (mdx), mouse, plasma, po, 5 mg/kg, plasma, 5 mg/kg single oral dose, read-out: Cmax): 24 ng/mL
Cmax (male, C57BL/10ScSn-Dmd^mdx/J (mdx), mouse, plasma, po, 10 mg/kg, plasma, 10 mg/kg single oral dose, read-out: Cmax): 96.7 ng/mL
Cmax (male, C57BL/10ScSn-Dmd^mdx/J (mdx), mouse, plasma, po, 25 mg/kg, plasma, 25 mg/kg single oral dose, read-out: Cmax): 416 ng/mL
Cmax (male, C57BL/10ScSn-Dmd^mdx/J (mdx), mouse, plasma, po, 37.5 mg/kg, plasma, 37.5 mg/kg single oral dose, read-out: Cmax): 807 ng/mL
Kp (male, C57BL/10ScSn-Dmd^mdx/J (mdx), mouse, po, 5 mg/kg, 5 mg/kg single oral dose, read-out: AUCtot Muscle/Plasma ratio): 6.2
Kp (male, C57BL/10ScSn-Dmd^mdx/J (mdx), mouse, po, 10 mg/kg, 10 mg/kg single oral dose, read-out: AUCtot Muscle/Plasma ratio): 5.8
Kp (male, C57BL/10ScSn-Dmd^mdx/J (mdx), mouse, po, 25 mg/kg, 25 mg/kg single oral dose, read-out: AUCtot Muscle/Plasma ratio): 2.8
Kp (male, C57BL/10ScSn-Dmd^mdx/J (mdx), mouse, po, 37.5 mg/kg, 37.5 mg/kg single oral dose, read-out: AUCtot Muscle/Plasma ratio): 3.2
Kp (male, C57BL/10ScSn-Dmd^mdx/J (mdx), mouse, po, 37.5 mg/kg, mean over 5, 10, 25, 37.5 mg/kg oral doses, read-out: AUCtot Muscle/Plasma ratio, mean): ~4.5
Cmax (male, C57BL/10ScSn-Dmd^mdx/J (mdx), mouse, quadriceps muscle, po, 5 mg/kg, muscle (quadriceps), 5 mg/kg single oral dose, read-out: Cmax): 117 ng/g
Cmax (male, C57BL/10ScSn-Dmd^mdx/J (mdx), mouse, quadriceps muscle, po, 10 mg/kg, muscle (quadriceps), 10 mg/kg single oral dose, read-out: Cmax): 197 ng/g
Cmax (male, C57BL/10ScSn-Dmd^mdx/J (mdx), mouse, quadriceps muscle, po, 25 mg/kg, muscle (quadriceps), 25 mg/kg single oral dose, read-out: Cmax): 607 ng/g
Cmax (male, C57BL/10ScSn-Dmd^mdx/J (mdx), mouse, quadriceps muscle, po, 37.5 mg/kg, muscle (quadriceps), 37.5 mg/kg single oral dose, read-out: Cmax): 1180 ng/g
blood plasma ratio (male, C57BL/10ScSn-Dmd^mdx/J (mdx), mouse, whole blood and plasma, 10 mg/kg single oral dose, read-out: AUCtot Blood/Plasma ratio): 1.8
AUC [1]: 156 ng·h/mL
Tmax [1]: 3 h
AUC [2]: 458 ng·h/mL
Tmax [2]: 2 h
AUC [3]: 1810 ng·h/mL
Tmax [3]: 1.5 h
AUC [4]: 2180 ng·h/mL
Tmax [4]: 0.5 h
Tmax (male, C57BL/10ScSn-Dmd^mdx/J (mdx), mouse, muscle (quadriceps), 5 mg/kg single oral dose): 3 h
Tmax (male, C57BL/10ScSn-Dmd^mdx/J (mdx), mouse, muscle (quadriceps), 10 mg/kg single oral dose): 2 h
Tmax (male, C57BL/10ScSn-Dmd^mdx/J (mdx), mouse, muscle (quadriceps), 25 mg/kg single oral dose): 2 h
Tmax (male, C57BL/10ScSn-Dmd^mdx/J (mdx), mouse, muscle (quadriceps), 37.5 mg/kg single oral dose): 0.5 h
AUC [5]: 95.2 ng·h/mL
Tmax [5]: 0.5 h
AUC [6]: 261 ng·h/mL
Tmax [6]: 2 h
AUC [7]: 1230 ng·h/mL
Tmax [7]: 1.5 h
AUC [8]: 1510 ng·h/mL
Tmax [8]: 0.5 h
AUCtot Muscle/Plasma ratio, mean (mean over 5, 10, 25, 37.5 mg/kg oral doses, listed as ITF2357): 4.5
AUCtot (muscle (quadriceps), 5 mg/kg single oral dose): 594.4 ng·h/g
AUCtot (muscle (quadriceps), 10 mg/kg single oral dose): 1511.9 ng·h/g
AUCtot (muscle (quadriceps), 25 mg/kg single oral dose): 3511.2 ng·h/g
AUCtot (muscle (quadriceps), 37.5 mg/kg single oral dose): 4804.6 ng·h/g
Cmax (plasma, 5 mg/kg single oral dose, listed as ITF2357, 5 mg/kg): 24.17 ng/mL
Cmax (plasma, 37.5 mg/kg single oral dose, listed as ITF2357, 37.5 mg/kg): 807.39 ng/mL
